Test results as given in PubChem BioAssay AID1918936 (Molecular Pharmacology Branch, DTP, NCI, 2023).

System: 349418-098-R-PDC complex spheroid viability
Assay: Anticancer human tumor 349418-098-R-PDC patient-derived lung adenocarcinoma cell line growth inhibition
Details: for IC50: curve of first compound; for viability, T/C: stronger effect = lower value
Outline: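 Complex spheroids of tumor cells with HUVEC and human MSCs, exposed to iadademstat combined with other agents. Each agent tested in half-log steps from near clinical Cmax (else 10 microM top), DMSO ≤0.25%.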

[1] = second compound 0.1 µM, first compound 0.0316 µM
[2] = second compound 0.1 µM, first compound 0.1 µM
[3] = second compound 0.1 µM, first compound 0.316 µM
[4] = second compound 0.1 µM, first compound 1 µM
[5] = second compound 0.1 µM, first compound 3.16 µM
[6] = second compound 0.1 µM, first compound 10 µM
[7] = second compound 0.316 µM, first compound 0.0316 µM
[8] = second compound 0.316 µM, first compound 0.1 µM
[9] = second compound 0.316 µM, first compound 0.316 µM
[10] = second compound 0.316 µM, first compound 1 µM
[11] = second compound 0.316 µM, first compound 3.16 µM
[12] = second compound 0.316 µM, first compound 10 µM
[13] = second compound 1 µM, first compound 0.0316 µM
[14] = second compound 1 µM, first compound 0.1 µM
[15] = second compound 1 µM, first compound 0.316 µM
[16] = second compound 1 µM, first compound 1 µM
[17] = second compound 1 µM, first compound 3.16 µM
[18] = second compound 1 µM, first compound 10 µM
[19] = second compound 3.16 µM, first compound 0.0316 µM
[20] = second compound 3.16 µM, first compound 0.1 µM
[21] = second compound 3.16 µM, first compound 0.316 µM
[22] = second compound 3.16 µM, first compound 1 µM
[23] = second compound 3.16 µM, first compound 3.16 µM
[24] = second compound 3.16 µM, first compound 10 µM
[25] = second compound 10 µM, first compound 0.0316 µM
[26] = second compound 10 µM, first compound 0.1 µM
[27] = second compound 10 µM, first compound 0.316 µM
[28] = second compound 10 µM, first compound 1 µM
[29] = second compound 10 µM, first compound 3.16 µM
[30] = second compound 10 µM, first compound 10 µM
[31] = second compound 0.1 µM, first compound 0.00316 µM
[32] = second compound 0.1 µM, first compound 0.01 µM
[33] = second compound 0.316 µM, first compound 0.00316 µM
[34] = second compound 0.316 µM, first compound 0.01 µM
[35] = second compound 1 µM, first compound 0.00316 µM
[36] = second compound 1 µM, first compound 0.01 µM
[37] = second compound 3.16 µM, first compound 0.00316 µM
[38] = second compound 3.16 µM, first compound 0.01 µM
[39] = second compound 10 µM, first compound 0.00316 µM
[40] = second compound 10 µM, first compound 0.01 µM
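Further: spheroids exposed to agents for seven days before readout.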
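Wherever viability, T/C is given: 100% = DMSO vehicle control wells.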

| Structure (SMILES) | IC50 (second compound 0.1 µM) [nM] | IC50 (second compound 0.316 µM) [nM] | IC50 (second compound 1 µM) [nM] | IC50 (second compound 3.16 µM) [nM] | IC50 (second compound 10 µM) [nM] | viability, T/C [1] [%] | viability, T/C [2] [%] | viability, T/C [3] [%] | viability, T/C [4] [%] | viability, T/C [7] [%] | viability, T/C [8] [%] | viability, T/C [9] [%] | viability, T/C [10] [%] | viability, T/C [13] [%] | viability, T/C [14] [%] | viability, T/C [15] [%] | viability, T/C [16] [%] | viability, T/C [19] [%] | viability, T/C [20] [%] | viability, T/C [21] [%] | further results |
| --- | --- | --- | --- | --- | --- | --- | --- | --- | --- | --- | --- | --- | --- | --- | --- | --- | --- | --- | --- | --- | --- |
| CC(C)c1c(-c2ccccc2)nc2c(C#N)c[nH]n2c1=O + NC1CC1c1ccc(-c2cccc(O)c2)cc1 | > 10000 | > 10000 | > 10000 | > 10000 | > 10000 | 126 | 122 | 119 | 106 | 95.6 | 113 | 118 | 106 | 114 | 103 | 120 | 99.2 | 104 | 106 | 111 | viability, T/C [5]: 111%; viability, T/C [6]: 80.7%; viability, T/C [11]: 98.7%; viability, T/C [12]: 81.8%; viability, T/C [17]: 95.7%; viability, T/C [18]: 102%; viability, T/C [22]: 100%; viability, T/C [23]: 104%; viability, T/C [24]: 91.2%; viability, T/C [25]: 86.1%; viability, T/C [26]: 82.4%; viability, T/C [27]: 86.7%; viability, T/C [28]: 75.3%; viability, T/C [29]: 62.5%; viability, T/C [30]: 64.8% |
| CC1COCCN1c1cc(-c2ccnn2C)c2ccnc(-c3ccn[nH]3)c2n1 (stereo not given) + NC1CC1c1ccc(-c2cccc(O)c2)cc1 | < 3.16 | < 3.16 | < 3.16 | < 3.16 | < 3.16 | 8.87 | 6.42 | 5.35 | 4.21 | 8.79 | 6.08 | 5.05 | 4.22 | 8.57 | 6.23 | 4.88 | 4.83 | 8.3 | 5.96 | 5.3 | viability, T/C [31]: 27.6%; viability, T/C [32]: 16.8%; viability, T/C [33]: 25.8%; viability, T/C [34]: 15.6%; viability, T/C [35]: 23.5%; viability, T/C [36]: 14.9%; viability, T/C [37]: 22%; viability, T/C [38]: 16%; viability, T/C [22]: 4.55%; viability, T/C [39]: 16.9%; viability, T/C [40]: 12.8%; viability, T/C [25]: 6.32%; viability, T/C [26]: 5%; viability, T/C [27]: 4.59%; viability, T/C [28]: 3.83% |
| COc1ccc([C@@H](O)c2cc(-c3ncnc4cc(N5CCOCC5)ccc34)c(F)cc2Cl)nn1 + NC1CC1c1ccc(-c2cccc(O)c2)cc1 | 696 | 741 | 644 | 547 | 185 | 96.6 | 88.1 | 71.4 | 42.1 | 104 | 93.8 | 87.7 | 36.8 | 106 | 91.9 | 75 | 36.2 | 94.8 | 83.5 | 67.9 | viability, T/C [5]: 10.1%; viability, T/C [6]: 3.99%; viability, T/C [11]: 8.34%; viability, T/C [12]: 3.86%; viability, T/C [17]: 7.37%; viability, T/C [18]: 4.08%; viability, T/C [22]: 32.1%; viability, T/C [23]: 6.81%; viability, T/C [24]: 4.07%; viability, T/C [25]: 71.7%; viability, T/C [26]: 62.7%; viability, T/C [27]: 38.1%; viability, T/C [28]: 21.9%; viability, T/C [29]: 4.81%; viability, T/C [30]: 3.46% |
| O=C(C=Cn1cnc(-c2cc(C(F)(F)F)cc(C(F)(F)F)c2)n1)NNc1cnccn1 + NC1CC1c1ccc(-c2cccc(O)c2)cc1 | < 3.16 | < 3.16 | < 3.16 | < 3.16 | < 3.16 | 8.69 | 4.58 | 3.21 | 2.82 | 7.36 | 4.45 | 3.04 | 2.89 | 7.13 | 3.94 | 2.88 | 2.59 | 7.41 | 5 | 3.23 | viability, T/C [31]: 21.7%; viability, T/C [32]: 13.6%; viability, T/C [33]: 23%; viability, T/C [34]: 13.6%; viability, T/C [35]: 21.3%; viability, T/C [36]: 11.7%; viability, T/C [37]: 22.3%; viability, T/C [38]: 16.3%; viability, T/C [22]: 2.75%; viability, T/C [39]: 11.5%; viability, T/C [40]: 11.2%; viability, T/C [25]: 7.71%; viability, T/C [26]: 5.06%; viability, T/C [27]: 2.95%; viability, T/C [28]: 2.62% |
| Nc1ncn(C2CC(O)C(CO)O2)c(=O)n1 (stereo not given) + NC1CCC(NC2CC2c2ccccc2)CC1 | 24.8 | 46.5 | 27.4 | 19.4 | 11.1 | 43 | 28.6 | 26.1 | 24.2 | 55.2 | 36.7 | 25 | 22.7 | 46 | 31.4 | 27.8 | 23.3 | 45.3 | 34 | 23.7 | viability, T/C [31]: 78%; viability, T/C [32]: 75.6%; viability, T/C [33]: 72.8%; viability, T/C [34]: 75.7%; viability, T/C [35]: 89.5%; viability, T/C [36]: 73.5%; viability, T/C [37]: 83.2%; viability, T/C [38]: 56.7%; viability, T/C [22]: 21.9%; viability, T/C [39]: 80.9%; viability, T/C [40]: 50.5%; viability, T/C [25]: 36%; viability, T/C [26]: 27.5%; viability, T/C [27]: 23.3%; viability, T/C [28]: 20.4% |
